Measured values from patent publication EP0626170A2, “Stabilisation of pharmacologically active compounds in sustained release compositions” (SANDOZ LTD., priority 1993, dated 1994).

Experiment: Stability of compound A microspheres: degradation products by HPLC after manufacture, γ-irradiation and storage
Assay type: physicochemical
Settings: for Increase of degradation product (%) after storage at 5°C / Increase of degradation product (%) after storage at 25°C: further increase (+) on storage; for degradation: during manufacture, sterilization and 1 month storage (5°C); for Increase of degradation product (%) after man. + γ-irrad. / Increase of degradation product (%) after manufacture: microspheres, pilot batches
Experimental: Microparticles were produced by a modified triple-emulsion technique. Compound A pamoate salt was dispersed in a small amount of water (14 mg pamoate salt in 0.1 ml) and the dispersion was intensively homogenized using an Ultra-Turrax T25 (Janke & Kunkel IKA-Werk) into a solution (10-25%) of DL-PLG-GLU in methylene chloride (emulsion process). Alternatively, compound A pamoate salt was directly dispersed into the solution of polymer in methylene chloride (suspension process). The resulting primary water/oil (W/O) emulsion or suspension (S/O) was then intensively mixed with the external phase (in a ratio of 1:40), a gelatin containing aqueous solution. After stirring for one hour in order to evaporate the methylene chloride, the generated microspheres were collected by filtration, washed with water and dried under high vacuum at room temperature for 1 - 3 days. Storage was effected at 5°C. Sterilization was effected by γ-irridation (25 kGy required) by using nitrogen as a protecting gas.
Compound A content and purity of the microparticles was determined by HPLC (RP-18 columns, acetonitril - tetramethyl ammonium hydroxide/water gradient) after extraction of the peptide from the microspheres using tetrahydrofuran acetate buffer, pH 4.2 (1:1).
The generation of degradation products of compound A during the manufacture process, γ-irradiation and subsequent strorage at various temperatures is represented in Table 2. Potential stability problems arose with the acetate and the phosphate salts of compound A: during manufacture, sterilization and 1 month storage (5°C) 5 - 10% degradation occurred. These problems could be circumvented by the use of the pamoate. After manufacture, sterilization and three months of storage even at 25°C there was an increase of degradation products of less than 1.5%, more particularly of less than 0.5% after manufacture, less than 1.0% from the beginning of manufacture to just after irradiation and , inclusive of storage for 3 months at 25°C less than 1.5%.

Row | Increase of degradation product (%) after storage at 5°C (1 month) | Increase of degradation product (%) after storage at 25°C (1 month) | degradation | Increase of degradation product (%) after man. + γ-irrad. | Increase of degradation product (%) after manufacture | Increase of degradation product (%) after storage at 5°C (3 months) | Increase of degradation product (%) after storage at 25°C (3 months) | increase of degradation products (after manufacture) | increase of degradation products (after manufacture, sterilization and three months of storage at 25°C) | increase of degradation products (from the beginning of manufacture to just after irradiation) | Compound
1 | + 0.6% | + 1.3% | 5 - 10% | 4.2 - 8.3% | 0.4 - 4.2% |  |  |  |  |  | CC(=O)N[C@H](Cc1ccc2ccccc2c1)C(=O)N[C@H](Cc1ccc(Cl)cc1)C(=O)N[C@H](Cc1c[nH]c2ccccc12)C(=O)N[C@@H](CO)C(=O)N[C@@H](Cc1ccc(O)cc1)C(=O)N[C@H](CCCCNCC(O)CO)C(=O)N[C@@H](CC(C)C)C(=O)N[C@@H](CCCCNCC(O)CO)C(=O)N1CCC[C@H]1C(=O)N[C@H](C)C(N)=O (single isomer, unassigned) [Compound A acetate]
2 |  |  |  | 0.4 - 0.8% | 0.1 - 0.4% | + 0.4% | + 0.6% | less than 0.5% | less than 1.5% | less than 1.0% | CC(=O)N[C@H](Cc1ccc2ccccc2c1)C(=O)N[C@H](Cc1ccc(Cl)cc1)C(=O)N[C@H](Cc1c[nH]c2ccccc12)C(=O)N[C@@H](CO)C(=O)N[C@@H](Cc1ccc(O)cc1)C(=O)N[C@H](CCCCNCC(O)CO)C(=O)N[C@@H](CC(C)C)C(=O)N[C@@H](CCCCNCC(O)CO)C(=O)N1CCC[C@H]1C(=O)N[C@H](C)C(N)=O (single isomer, unassigned) [Compound A pamoate]
3 | + 0.7% | + 1.6% | 5 - 10% | 7.0 - 9.0% | 1.2 - 3.5% |  |  |  |  |  | CC(=O)N[C@H](Cc1ccc2ccccc2c1)C(=O)N[C@H](Cc1ccc(Cl)cc1)C(=O)N[C@H](Cc1c[nH]c2ccccc12)C(=O)N[C@@H](CO)C(=O)N[C@@H](Cc1ccc(O)cc1)C(=O)N[C@H](CCCCNCC(O)CO)C(=O)N[C@@H](CC(C)C)C(=O)N[C@@H](CCCCNCC(O)CO)C(=O)N1CCC[C@H]1C(=O)N[C@H](C)C(N)=O (single isomer, unassigned) [Compound A phosphate]
